These results are taken from patent US9580423B2, “Bicyclic heterocycles as FGFR4 inhibitors” (Incyte Corporation, priority 2015, dated 2017).

Molecules are shown by their SMILES. Read-outs that look alike come from different tables or passages of the source.

The target of one experiment is FGFR1 (Homo sapiens (Human), UniProt P11362). The experiment is described as follows: FGFR Enzymatic Assay (FRET peptide phosphorylation), FGFR1. The note with it: read-out: FGFR1 IC50.
The target of another experiment is FGFR3 (Homo sapiens (Human), UniProt P22607). The experiment is described as follows: FGFR Enzymatic Assay (FRET peptide phosphorylation), FGFR3.
FGFR3, sequence (P22607 23-806): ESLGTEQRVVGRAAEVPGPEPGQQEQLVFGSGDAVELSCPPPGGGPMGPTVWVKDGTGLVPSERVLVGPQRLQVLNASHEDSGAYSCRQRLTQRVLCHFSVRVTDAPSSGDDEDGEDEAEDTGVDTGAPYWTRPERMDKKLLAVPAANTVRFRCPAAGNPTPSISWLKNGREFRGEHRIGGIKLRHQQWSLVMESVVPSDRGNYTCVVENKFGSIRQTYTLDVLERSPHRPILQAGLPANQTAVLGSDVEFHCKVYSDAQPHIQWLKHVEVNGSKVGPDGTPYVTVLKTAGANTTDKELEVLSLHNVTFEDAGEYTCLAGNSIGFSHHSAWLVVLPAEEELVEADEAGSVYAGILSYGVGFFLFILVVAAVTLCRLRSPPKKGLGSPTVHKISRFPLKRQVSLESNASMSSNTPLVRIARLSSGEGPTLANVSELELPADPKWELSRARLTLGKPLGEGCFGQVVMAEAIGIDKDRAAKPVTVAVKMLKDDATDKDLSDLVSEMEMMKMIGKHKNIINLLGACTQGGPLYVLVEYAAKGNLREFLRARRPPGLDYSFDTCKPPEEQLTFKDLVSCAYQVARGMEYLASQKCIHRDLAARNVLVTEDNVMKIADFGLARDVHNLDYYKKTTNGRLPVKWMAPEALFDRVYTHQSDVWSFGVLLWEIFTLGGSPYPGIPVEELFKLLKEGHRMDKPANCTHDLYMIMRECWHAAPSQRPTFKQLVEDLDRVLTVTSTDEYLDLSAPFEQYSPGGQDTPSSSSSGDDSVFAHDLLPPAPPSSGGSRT
In another experiment the target is FGFR4 (Homo sapiens (Human), UniProt P22455). The experiment is described as follows: FGFR Enzymatic Assay (FRET peptide phosphorylation), FGFR4. Particulars: for FGFR1/FGFR4 IC50 ratio / FGFR2/FGFR4 IC50 ratio / FGFR3/FGFR4 IC50 ratio: IC50 ratio showing FGFR4 selectivity.
FGFR4, sequence (P22455 22-802): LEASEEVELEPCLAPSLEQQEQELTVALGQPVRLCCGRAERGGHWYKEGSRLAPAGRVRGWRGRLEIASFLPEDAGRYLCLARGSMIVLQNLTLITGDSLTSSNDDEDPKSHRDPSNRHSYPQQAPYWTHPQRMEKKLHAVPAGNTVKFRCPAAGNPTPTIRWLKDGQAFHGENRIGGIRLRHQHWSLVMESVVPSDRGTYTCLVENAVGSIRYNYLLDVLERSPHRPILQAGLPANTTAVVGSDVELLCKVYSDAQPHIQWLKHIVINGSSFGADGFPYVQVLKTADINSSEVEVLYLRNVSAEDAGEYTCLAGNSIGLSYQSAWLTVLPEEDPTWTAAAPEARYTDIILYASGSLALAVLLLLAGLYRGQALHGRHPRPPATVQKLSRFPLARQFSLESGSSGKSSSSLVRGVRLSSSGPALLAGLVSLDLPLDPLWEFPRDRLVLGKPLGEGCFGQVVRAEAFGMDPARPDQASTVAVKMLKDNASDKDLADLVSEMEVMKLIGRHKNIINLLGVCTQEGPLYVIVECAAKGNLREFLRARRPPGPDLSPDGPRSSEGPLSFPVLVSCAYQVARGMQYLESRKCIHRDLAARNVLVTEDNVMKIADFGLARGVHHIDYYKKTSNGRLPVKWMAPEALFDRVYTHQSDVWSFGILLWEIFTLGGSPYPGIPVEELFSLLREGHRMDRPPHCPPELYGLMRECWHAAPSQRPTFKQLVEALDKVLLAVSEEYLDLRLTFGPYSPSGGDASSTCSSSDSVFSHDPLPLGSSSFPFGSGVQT
The next experiment concerns the target FGFR2 (Homo sapiens (Human), UniProt P21802). Kind of experiment: FGFR Enzymatic Assay (FRET peptide phosphorylation), FGFR2.
[1] abbreviates: pre-incubated for 5 to 10 minutes.
Where [2] appears, read: read-out: FGFR3 IC50, pre-incubated for 4 hours.
Where [3] appears, read: read-out: FGFR4 IC50, pre-incubated for 5 to 10 minutes.
Where [4] appears, read: read-out: FGFR4 IC50, pre-incubated for 4 hours.
[5] abbreviates: read-out: FGFR2 IC50, pre-incubated for 5 to 10 minutes.
Setting [6] is: read-out: FGFR2 IC50, pre-incubated for 4 hours.

FGFR1, sequence (P11362 22-822): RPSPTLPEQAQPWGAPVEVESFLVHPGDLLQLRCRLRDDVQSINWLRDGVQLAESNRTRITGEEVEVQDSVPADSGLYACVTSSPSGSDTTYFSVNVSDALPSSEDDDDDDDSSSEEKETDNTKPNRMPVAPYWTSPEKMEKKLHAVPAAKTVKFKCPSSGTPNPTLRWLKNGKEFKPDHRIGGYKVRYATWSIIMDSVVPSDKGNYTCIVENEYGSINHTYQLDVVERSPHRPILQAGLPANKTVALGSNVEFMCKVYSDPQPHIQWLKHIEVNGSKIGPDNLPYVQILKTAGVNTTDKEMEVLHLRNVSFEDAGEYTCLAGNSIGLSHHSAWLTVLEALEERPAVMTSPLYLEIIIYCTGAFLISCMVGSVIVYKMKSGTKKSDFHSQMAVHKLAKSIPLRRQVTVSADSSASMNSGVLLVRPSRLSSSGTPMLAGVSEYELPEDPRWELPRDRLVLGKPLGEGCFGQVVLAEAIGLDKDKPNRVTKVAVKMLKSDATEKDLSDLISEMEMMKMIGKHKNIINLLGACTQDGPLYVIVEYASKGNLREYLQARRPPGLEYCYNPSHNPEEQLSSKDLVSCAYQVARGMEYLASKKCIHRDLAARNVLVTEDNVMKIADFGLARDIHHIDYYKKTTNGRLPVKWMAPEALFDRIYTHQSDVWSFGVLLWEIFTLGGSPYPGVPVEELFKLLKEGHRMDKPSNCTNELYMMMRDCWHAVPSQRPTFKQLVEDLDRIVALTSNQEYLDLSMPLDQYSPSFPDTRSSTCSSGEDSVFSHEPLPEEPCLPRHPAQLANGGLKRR
FGFR2, sequence (P21802 22-821): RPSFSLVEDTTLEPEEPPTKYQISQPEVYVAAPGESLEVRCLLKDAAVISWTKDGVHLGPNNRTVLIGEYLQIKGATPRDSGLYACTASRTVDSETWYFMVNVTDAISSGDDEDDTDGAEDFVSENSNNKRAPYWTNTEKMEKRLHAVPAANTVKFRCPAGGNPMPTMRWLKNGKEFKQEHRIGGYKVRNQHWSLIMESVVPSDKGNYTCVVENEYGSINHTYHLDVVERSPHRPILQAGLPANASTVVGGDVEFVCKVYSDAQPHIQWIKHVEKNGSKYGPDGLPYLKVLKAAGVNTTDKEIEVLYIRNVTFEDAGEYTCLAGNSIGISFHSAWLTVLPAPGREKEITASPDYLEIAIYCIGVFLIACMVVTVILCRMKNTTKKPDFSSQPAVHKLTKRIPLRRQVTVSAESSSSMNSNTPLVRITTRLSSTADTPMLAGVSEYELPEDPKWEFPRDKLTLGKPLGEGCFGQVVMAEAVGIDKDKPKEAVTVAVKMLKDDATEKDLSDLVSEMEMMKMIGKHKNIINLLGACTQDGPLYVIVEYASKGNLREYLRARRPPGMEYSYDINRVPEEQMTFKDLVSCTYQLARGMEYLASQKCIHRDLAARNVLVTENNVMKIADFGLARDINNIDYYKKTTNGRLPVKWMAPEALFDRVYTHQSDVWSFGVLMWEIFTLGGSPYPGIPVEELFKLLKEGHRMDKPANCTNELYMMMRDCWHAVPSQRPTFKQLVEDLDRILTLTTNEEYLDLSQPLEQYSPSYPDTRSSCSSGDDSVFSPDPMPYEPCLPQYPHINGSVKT
Source text for FGFR1: (§1) The enzymes were purchased from Millipore or Invitrogen.
(§2) GraphPad prism3 was used to analyze the data. The IC50 values were derived by fitting the data to the equation for a sigmoidal dose-response with a variable slope. Y=Bottom+(Top-Bottom)/(1+10^((LogIC50−X)*HillSlope)) where X is the logarithm of concentration and Y is the response.
Source text for FGFR2: as §1, §2
Source text for FGFR3: as §1, §2
Source text for FGFR4: as §1, §2

For `C=CC(=O)Nc1cc(CN2CCOCC2)cc(-c2cc3c(cn2)CN(c2c(F)c(OC)cc(OC)c2F)C(=O)C32CC2)c1` [Example 11, N-[3-[2′-(2,6-difluoro-3,5-dimethoxyphenyl)-3′-oxo-2′,3′-dihydro-1′H-spiro[cyclopropane-1,4′-[2,7]naphthyridin]-6′-yl]-5-(morpholin-4-ylmethyl)phenyl]acrylamide], the IC50 at FGFR1 (setting [1]) is greater than 200 nM; on FGFR1 (pre-incubated for 4 hours), greater than 200 nM; on FGFR3 (read-out: FGFR3 IC50, pre-incubated for 5 to 10 minutes), greater than 200 nM; on FGFR3 (setting [2]), greater than 200 nM; on FGFR4 (setting [3]), less than 10 nM; at FGFR4 (setting [4]), less than 10 nM. Besides, the half-inhibitory concentration (IC50) on FGFR2 (setting [5]) and on FGFR2 (setting [6]) was greater than 200 nM throughout. Moreover, the “FGFR1/FGFR4 IC50 ratio” value at FGFR4 (setting [1]) and at FGFR4 (pre-incubated for 4 hours) was greater than 100 in each case. The “FGFR2/FGFR4 IC50 ratio” value on FGFR4 (setting [1]) and at FGFR4 (pre-incubated for 4 hours) was greater than 100 each time. The “FGFR3/FGFR4 IC50 ratio” value at FGFR4 (setting [1]) and on FGFR4 (pre-incubated for 4 hours) was greater than 100 in each case.

In the case of `C=CC(=O)Nc1cc(-c2cc3c(cn2)CN(c2c(F)c(OC)cc(OC)c2F)C(=O)C32CC2)ccc1CN1CCOCC1` [Example 12, N-(5-(2′-(2,6-difluoro-3,5-dimethoxyphenyl)-3′-oxo-2′,3′-dihydro-1′H-spiro[cyclopropane-1,4′-[2,7]naphthyridine]-6′-yl)-2-(morpholinomethyl)phenyl)acrylamide], the IC50 was greater than 200 nM on FGFR1 (setting [1]); greater than 200 nM at FGFR1 (pre-incubated for 4 hours); 30 to 200 nM against FGFR3 (FGFR3 IC50 (nM), pre-incubated for 5 to 10 minutes); 10 to 30 nM against FGFR3 (FGFR3 IC50 (nM), pre-incubated for 4 hours); less than 10 nM on FGFR4 (setting [3]); less than 10 nM at FGFR4 (setting [4]). Also, the IC50 against FGFR2 and at FGFR2 (setting [5]) was 30 to 200 nM throughout. Moreover, the “FGFR1/FGFR4 IC50 ratio” value is reported as greater than 10 on FGFR4 (setting [1]) and greater than 100 on FGFR4 (pre-incubated for 4 hours). The results for the “FGFR2/FGFR4 IC50 ratio” value at FGFR4 (setting [1]) and on FGFR4 (pre-incubated for 4 hours) were greater than 1 and greater than 25, respectively. Further, the “FGFR3/FGFR4 IC50 ratio” value at FGFR4 (setting [1]) is on record as greater than 1; at FGFR4 (pre-incubated for 4 hours), greater than 10.

As for `C=CC(=O)Nc1cn[nH]c1-c1cc2c(cn1)CN(c1c(F)c(OC)cc(OC)c1F)C(=O)C21CC1` [Example 14, N-(5-(2′-(2,6-difluoro-3,5-dimethoxyphenyl)-3′-oxo-2′,3′-dihydro-1′H-spiro[cyclopropane-1,4′-[2,7]naphthyridine]-6′-yl)-1H-pyrazol-4-yl)acrylamide], the concentration for half-maximal inhibition (IC50) at FGFR1 (pre-incubated for 4 hours) was greater than 200 nM; at FGFR3 (setting [2]), greater than 200 nM; at FGFR4 (setting [4]), less than 10 nM; at FGFR2 (setting [6]), greater than 200 nM. Moreover, on FGFR4 (pre-incubated for 4 hours), the “FGFR1/FGFR4 IC50 ratio” value is greater than 100. Besides, the “FGFR2/FGFR4 IC50 ratio” value on FGFR4 (pre-incubated for 4 hours) was greater than 100. The “FGFR3/FGFR4 IC50 ratio” value at FGFR4 (pre-incubated for 4 hours) is listed as greater than 100.

Take `C=CC(=O)Nc1cnn(CCOC)c1-c1cc2c(cn1)CN(c1c(F)c(OC)cc(OC)c1F)C(=O)C21CC1` [Example 15, N-(5-(2′-(2,6-difluoro-3,5-dimethoxyphenyl)-3′-oxo-2′,3′-dihydro-1′H-spiro[cyclopropane-1,4′-[2,7]naphthyridine]-6′-yl)-1-(2-methoxyethyl)-1H-pyrazol-4-yl)acrylamide]: the half-inhibitory concentration (IC50) on FGFR1 (pre-incubated for 4 hours) was greater than 200 nM; at FGFR3 (setting [2]) it was greater than 200 nM; at FGFR4 (setting [4]), less than 10 nM; at FGFR2 (setting [6]), greater than 200 nM. In addition, at FGFR4 (pre-incubated for 4 hours), the “FGFR1/FGFR4 IC50 ratio” value was greater than 100. Moreover, the “FGFR2/FGFR4 IC50 ratio” value on FGFR4 (pre-incubated for 4 hours) is greater than 100. Also, the “FGFR3/FGFR4 IC50 ratio” value on FGFR4 (pre-incubated for 4 hours) is greater than 100.

Consider `C=CC(=O)Nc1cnn(CCOCC)c1-c1cc2c(cn1)CN(c1c(F)c(OC)cc(OC)c1F)C(=O)C21CC1` [Example 16, N-(5-(2′-(2,6-difluoro-3,5-dimethoxyphenyl)-3′-oxo-2′,3′-dihydro-1′H-spiro[cyclopropane-1,4′-[2,7]naphthyridine]-6′-yl)-1-(2-ethoxyethyl)-1H-pyrazol-4-yl)acrylamide], for which the half-inhibitory concentration (IC50) at FGFR1 (pre-incubated for 4 hours) is greater than 200 nM; at FGFR3 (setting [2]), greater than 200 nM; at FGFR4 (setting [4]), less than 10 nM; on FGFR2 (setting [6]) it was greater than 200 nM. At FGFR4 (pre-incubated for 4 hours), the “FGFR1/FGFR4 IC50 ratio” value is recorded as greater than 100. The “FGFR2/FGFR4 IC50 ratio” value on FGFR4 (pre-incubated for 4 hours) is greater than 100. In addition, on FGFR4 (pre-incubated for 4 hours), the “FGFR3/FGFR4 IC50 ratio” value is reported as greater than 100.

As for `C=CC(=O)Nc1cnn(CCO)c1-c1cc2c(cn1)CN(c1c(F)c(OC)cc(OC)c1F)C(=O)C21CC1` [Example 17, N-(5-(2′-(2,6-difluoro-3,5-dimethoxyphenyl)-3′-oxo2′,3′-dihydro-1′H-spiro[cyclopropane-1,4′-[2,7]naphthyridine]-6′-yl)-1-(2-hydroxyethyl)-1H-pyrazol-4-yl)acrylamide], the concentration for half-maximal inhibition (IC50) is greater than 200 nM on FGFR1 (pre-incubated for 4 hours), greater than 200 nM on FGFR3 (setting [2]), less than 10 nM on FGFR4 (setting [4]) and greater than 200 nM at FGFR2 (setting [6]). For the same molecule, the “FGFR1/FGFR4 IC50 ratio” value on FGFR4 (pre-incubated for 4 hours) is on record as greater than 100. The “FGFR2/FGFR4 IC50 ratio” value at FGFR4 (pre-incubated for 4 hours) is greater than 100. For the same molecule, on FGFR4 (pre-incubated for 4 hours), the “FGFR3/FGFR4 IC50 ratio” value is greater than 100.

With `C=CC(=O)Nc1cnn(C2CCOCC2)c1-c1cc2c(cn1)CN(c1c(F)c(OC)cc(OC)c1F)C(=O)C21CC1` [Example 18, N-(5-(2′-(2,6-difluoro-3,5-dimethoxyphenyl)-3′,-oxo-2′,3′-dihydro-1′H-spiro[cyclopropane-1,4′-[2,7]naphthyridine]-6′-yl)-1-(tetrahydro-2H-pyran-4-yl)-1H-pyrazol-4-yl)acrylamide], the IC50 on FGFR1 (pre-incubated for 4 hours) is greater than 200 nM; on FGFR3 (setting [2]), greater than 200 nM; on FGFR4, 10 to 30 nM; on FGFR2 (setting [6]) it was greater than 200 nM. The “FGFR1/FGFR4 IC50 ratio” value at FGFR4 (pre-incubated for 4 hours) is reported as greater than 100. Also, the “FGFR2/FGFR4 IC50 ratio” value on FGFR4 (pre-incubated for 4 hours) is reported as greater than 50. Besides, on FGFR4 (pre-incubated for 4 hours), the “FGFR3/FGFR4 IC50 ratio” value is reported as greater than 100.

Consider `C=CC(=O)Nc1cnn(CCN2CCOCC2)c1-c1cc2c(cn1)CN(c1c(F)c(OC)cc(OC)c1F)C(=O)C21CC1` [Example 19, N-(5-(2′-(2,6-difluoro-3,5-dimethoxyphenyl)-3′-oxo-2′,3′-dihydro-1′H-spiro[cyclopropane-1,4′-[2,7]naphthyridine]-6′-yl)-1-(2-morpholinoethyl)-1H-pyrazol-4-yl)acrylamide], for which the IC50 was greater than 200 nM on FGFR1 (pre-incubated for 4 hours), greater than 200 nM at FGFR3 (setting [2]), 10 to 30 nM against FGFR4 and greater than 200 nM at FGFR2 (setting [6]). For the same molecule, the “FGFR1/FGFR4 IC50 ratio” value at FGFR4 (pre-incubated for 4 hours) is greater than 100. Also, on FGFR4 (pre-incubated for 4 hours), the “FGFR2/FGFR4 IC50 ratio” value is given as greater than 100. Also, the “FGFR3/FGFR4 IC50 ratio” value on FGFR4 (pre-incubated for 4 hours) is greater than 100.

As to `C=CC(=O)Nc1cnn(Cc2ccncc2)c1-c1cc2c(cn1)CN(c1c(F)c(OC)cc(OC)c1F)C(=O)C21CC1` [Example 21, N-(5-(2′-(2,6-difluoro-3,5-dimethoxyphenyl)-3′-oxo-2′,3′-dihydro-1′H-spiro[cyclopropane-1,4′-[2,7]naphthyridine]-6′-yl)-1-(pyridin-4-ylmethyl)-1H-pyrazol-4-yl)acrylamide], the IC50 is greater than 200 nM at FGFR1 (pre-incubated for 4 hours), greater than 200 nM at FGFR3 (setting [2]), less than 10 nM on FGFR4 (setting [4]) and greater than 200 nM at FGFR2 (setting [6]). Moreover, on FGFR4 (pre-incubated for 4 hours), the “FGFR1/FGFR4 IC50 ratio” value is given as greater than 100. The “FGFR2/FGFR4 IC50 ratio” value at FGFR4 (pre-incubated for 4 hours) was greater than 50. For the same molecule, on FGFR4 (pre-incubated for 4 hours), the “FGFR3/FGFR4 IC50 ratio” value was greater than 100.

As to `C=CC(=O)Nc1cnn(Cc2cccnc2)c1-c1cc2c(cn1)CN(c1c(F)c(OC)cc(OC)c1F)C(=O)C21CC1` [Example 22, N-(5-(2′-(2,6-difluoro-3,5-dimethoxyphenyl)-3′-oxo-2′,3′-dihydro-1′H-spiro[cyclopropane-1,4′-[2,7]naphthyridine]-6′-yl)-1-(pyridin-3-ylmethyl)-1H-pyrazol-4-yl)acrylamide], the IC50 on FGFR1 (pre-incubated for 4 hours) was greater than 200 nM; on FGFR3 (setting [2]) it was greater than 200 nM; on FGFR4 (setting [4]), less than 10 nM; on FGFR2 (setting [6]), greater than 200 nM. Moreover, on FGFR4 (pre-incubated for 4 hours), the “FGFR1/FGFR4 IC50 ratio” value is listed as greater than 100. For the same molecule, the “FGFR2/FGFR4 IC50 ratio” value at FGFR4 (pre-incubated for 4 hours) was greater than 100. In addition, the “FGFR3/FGFR4 IC50 ratio” value at FGFR4 (pre-incubated for 4 hours) is recorded as greater than 100.

In the case of `C=CC(=O)Nc1cnn(Cc2ncn(C)n2)c1-c1cc2c(cn1)CN(c1c(F)c(OC)cc(OC)c1F)C(=O)C21CC1` [Example 23, N-(5-(2′-(2,6-difluoro-3,5-dimethoxyphenyl)-3′-oxo-2′,3′-dihydro-1′H-spiro[cyclopropane-1,4′-[2,7]naphthyridine]-6′-yl)-1-((1-methyl-1H-1,2,4-triazol-3-yl)methyl)-1H-pyrazol-4-yl)acrylamide], the 50% inhibitory concentration (IC50) is greater than 200 nM on FGFR1 (pre-incubated for 4 hours), greater than 200 nM at FGFR3 (setting [2]), less than 10 nM at FGFR4 (setting [4]) and greater than 200 nM on FGFR2 (setting [6]). The “FGFR1/FGFR4 IC50 ratio” value at FGFR4 (pre-incubated for 4 hours) is recorded as greater than 100. For the same molecule, the “FGFR2/FGFR4 IC50 ratio” value on FGFR4 (pre-incubated for 4 hours) is greater than 100. For the same molecule, the “FGFR3/FGFR4 IC50 ratio” value at FGFR4 (pre-incubated for 4 hours) is greater than 100.

As for `C=CC(=O)Nc1cnn(CC2CCOCC2)c1-c1cc2c(cn1)CN(c1c(F)c(OC)cc(OC)c1F)C(=O)C21CC1` [Example 24, N-(5-(2′-(2,6-difluoro-3,5-dimethoxyphenyl)-3′-oxo,2′,3′-dihydro-1′H-spiro[cyclopropane-1,4′-[2,7]naphthyridine]-6′-yl)-1-((tetrahydro-2H-pyran-4-yl)methyl)-1H-pyrazol-4-yl)acrylamide], the IC50 was greater than 200 nM at FGFR1 (pre-incubated for 4 hours), greater than 200 nM on FGFR3 (setting [2]), 10 to 30 nM against FGFR4 and greater than 200 nM on FGFR2 (setting [6]). Further, the “FGFR1/FGFR4 IC50 ratio” value on FGFR4 (pre-incubated for 4 hours) is greater than 100. For the same molecule, the “FGFR2/FGFR4 IC50 ratio” value on FGFR4 (pre-incubated for 4 hours) was greater than 100. In addition, at FGFR4 (pre-incubated for 4 hours), the “FGFR3/FGFR4 IC50 ratio” value is greater than 100.
